Test results taken from article PMC9888311, “Neonatal NET-Inhibitory Factor improves survival in the cecal ligation and puncture model of polymicrobial sepsis by inhibiting neutrophil extracellular traps” (Frontiers in Immunology, 2023).
Where no end group is shown, it is not given here.

What was measured:
Type in all cases: in vivo, mouse (outbred Swiss Webster)
[1] = test system: CLP model of polymicrobial sepsis; experiment: Survival over 6 days after cecal ligation and puncture (CLP)
Experimental: Mice were anesthetized with 3% isoflurane in an induction chamber, and anesthesia was maintained by use of inhalation via nose cone. Sepsis was induced by cecal ligation and puncture (CLP) as previously described ([30], [31]). […] The animals received subcutaneous sterile isotonic saline (0.5 mL) for fluid resuscitation immediately after surgery. Sham-operated mice were subjected to identical procedures, except that ligation and puncture of the cecum was omitted. Survival of mice subjected to CLP or sham injury was determined daily for 6 days. Twenty-four and 48 hours after CLP, all animals were scored for clinical illness severity as previously described ([32]) by an examiner blinded to treatment arm. In this assessment, higher scores reflect increased illness severity with non-surviving mice receiving a score of 10. These mice were included in the statistical analysis. In additional experiments, mature Swiss-webster mice were treated with sham surgery or CLP procedure. […]
For our survival studies, animals were randomly assigned to one of five groups: (a) sham-operated group (Sham); (b) DMSO vehicle treatment group (CLP + DMSO (0.003%/5% Dextrose/H2O, IV); (c) nNIF treatment group ([…], 0.003%/5% Dextrose/H2O, IV); (d) scrambled peptide control treatment group (CLP + nNIF-SCR, 1 mg/kg, 0.003%/5% Dextrose/H2O, IV); and (e) antibiotic treatment group ([…]). Groups a-d received their respective treatment at 4 and 10 hours after CLP. Group e received two doses of meropenem at 4 and 10 hours after CLP and then daily injections for 6 days. In another set of survival studies, mice were treated with nNIF or nNIF-SCR (1 mg/kg, IV) 4 and 10 hours after CLP in combination therapy with a suboptimal dose of meropenem (8 mg/kg, IP) also given 4 and 10 hours after CLP and then once daily. […] Both aliquots of blood and peritoneal fluid were used for the following analyses: leukocyte cell count and differential, bacterial CFU studies, NET quantitation using MPO-DNA complex ELISA, live cell imaging, and multiplex cytokine profiling with specific ELISA confirmation.

[2] = test system: neutrophil extracellular traps (NETs), plasma; experiment: Plasma NET formation (MPO-DNA complex ELISA); details: 24 hours after CLP; for plasma MPO-DNA complexes compared to other CLP treatment groups: nNIF 1 mg/kg IV or meropenem 25 mg/kg IP at 4 and 10 hours after CLP, N=3-5 per group, two experiments
Experimental: An in-house ELISA was used to quantify MPO-DNA complexes in plasma and peritoneal fluid from sham and CLP mice 24 hours after the surgical procedure ([24], [27]). Briefly, after overnight coating with anti-MPO capture antibody in calcium carbonate coating buffer (2 µg/ml; 0400-0002, Bio-Rad) at 4°C, a 96-well plate was blocked with 2.5% bovine serum albumin in PBS for 2 hours at room temperature. The plate was subsequently washed, before incubating for 90 minutes at room temperature with 10% peritoneal fluid in blocking buffer. The plate was washed five times, and then incubated for 90 minutes at room temperature with anti-DNA detection antibody (1:20; Cell Death detection ELISA, 11544675001, Sigma). After five washes, the plate was developed with TMB substrate solution (Sigma).

neutrophil CD11b = experiment: Peritoneal fluid neutrophil CD11b expression (flow cytometry); details: 24 hours after CLP; nNIF 1 mg/kg or meropenem 25 mg/kg at 4 and 10 hours; compared to scrambled peptide control-treated CLP mice
Experimental: Twenty-four hours after CLP or sham surgery, total white blood cell and differential neutrophil counts were determined both in whole blood samples collected from orbital vein using heparinized capillaries tubes and peritoneal fluid by washing with 3 mL of PBS, respectively. Then, samples were incubated with CD45 APC-Cy7 (Biolegend), CD11b PE-Cy7 (EBioscience), Ly6G BV510 (Biolegend), and CD16/CD32 (Fc-block, EBioscience) for 30 minutes at 37 °C. Thirty minutes later, cells were washed, fixed, and ran on a Beckman Coulter Cytoflex located in the University of Utah Flow Cytometry Core.

[3] = test system: aerobic bacteria in peritoneal fluid; experiment: Peritoneal fluid aerobic bacterial colony forming units; details: 24 hours after CLP; nNIF 1 mg/kg or meropenem 25 mg/kg at 4 and 10 hours; serial dilution, LB-agar, 37°C 24 hours; N=5-8
Experimental: (§1) Peritoneal fluid cytokines were analyzed using a mouse Cytokine/Chemokine Panel I Multiplex Array (Millipore Sigma catalog# HCYTMAG60-PMX41) according to manufacturer’s instructions on a Luminex 200 instrument. Bacterial counts in whole blood and peritoneal lavage were determined 24 hours after CLP. Briefly, peritoneal fluid and blood samples were collected, serially diluted, plated on LB-agar dishes, and incubated at 37°C for 24 hours. The number of bacterial colonies was counted and expressed as CFU/mL.

[4] = test system: aerobic bacteria in whole blood; experiment: Whole blood aerobic bacterial colony forming units; details: for peripheral blood bacterial CFUs at 24 hours: 24 hours after CLP, nNIF 1 mg/kg or meropenem 25 mg/kg at 4 and 10 hours, serial dilution, LB-agar, 37°C 24 hours, N=5-8
Experimental: as §1, with “Bacterial counts in whole blood and peritoneal lavage were determined 24 hours after CLP.” left out

Compound | 6-day survival ([1]; sub-optimal meropenem 8 mg/kg IP at 4 and 10 hours after CLP then once daily) [%] | plasma MPO-DNA complexes compared to other CLP treatment groups [2] | plasma MPO-DNA complexes compared to the sham surgery group ([2]; nNIF-SCR 1 mg/kg IV or meropenem 25 mg/kg IP at 4 and 10 hours after CLP) | neutrophil CD11b expression in peritoneal fluid (neutrophil CD11b) | peritoneal fluid bacterial CFUs at 24 hours [3] | peripheral blood bacterial CFUs at 24 hours [4] | 6-day survival ([1]; nNIF 0.1 mg/kg IV, 2 doses at 4 and 10 hours after CLP, N=10, vehicle (DMSO) control 0%) [%] | 6-day survival ([1]; nNIF 0.5 mg/kg IV, 2 doses at 4 and 10 hours after CLP, N=10, vehicle (DMSO) control 0%) [%] | whole blood bacterial CFUs at 96 hours ([4]; 96 hours after CLP, nNIF 1 mg/kg, elevated at 24 hours, meropenem comparator 8 mg/kg, N=3-4)
C[C@@H](O)[C@H]1C(=O)N2C(C(=O)O)=C(S[C@@H]3CN[C@H](C(=O)N(C)C)C3)[C@H](C)[C@H]12 [meropenem, reference compound] | 40 | equivalent between the vehicle and meropenem arms | significantly increased MPO-DNA complexes | no decrease | statistically significant decrease | statistically significant decrease | – | – | –
KFNKPFVFLMIEQNTKSPLFMGKVVNPTQ-OH [nNIF, neonatal NET-Inhibitory Factor] | – | significant reduction in MPO-DNA complexes | – | significantly decreased neutrophil CD11b expression | higher CFUs | higher CFUs | 30 | 70 | returned to meropenem alone treatment levels
